Where no end group is shown, it is not given here. [ ]: non-standard residue; d: D form. Aib = CC(C)(N)C(=O)O
What was measured:
[1] = test system: APP/PS1 transgenic mice; assay: Immunohistochemical measurement of synaptic densities (synaptophysin) in the cortex of APP/PS1 transgenic mice; format: in vivo; details: 10 nmol/kg i.p. once daily for 8 weeks, FIG. 2, N=6 per group
Text: Animal models have been developed to test novel drugs. A standard model for Alzheimer's disease is transgenic mice that express human mutated genes for amyloid production that are known to induce Alzheimer's disease in humans. These APP/PS1 transgenic mice recapitulate some of the symptoms of Alzheimer's disease such as the aggregation of amyloid in the brain, memory loss and the loss of synapses (Radde et al., 2006).
The APP/PS1 mice express human Swedish mutated APP and human mutated presenilin-1 which induce Alzheimer's Disease in humans.
The dose of peptide tested was 10 nmol/kg body weight. The peptides were administered by a once-daily intraperitoneal injection for 8 weeks. Saline injections were administered as a control. Six animals per group were injected with a peptide or a saline control.
Animals (6 per group) were perfused transcardially with 30 ml of ice-cold PBS and 30 ml of ice-cold 4% paraformaldehyde to postfix the brain. The brains were removed and placed in fresh 30% sucrose solution in PBS to cryoprotect tissue and cut at a thickness of 40 μm on a cryostat. Sections were chosen according to stereological rules, with the first section taken at random and every 5th section afterwards. Between 7 and 13 sections were analysed per brain. […]

[2] = test system: APP/PS1 mice; assay: Immunostaining for phosphorylated tau protein in the hippocampus; format: in vivo; details: APP/PS1 mice vs APP/PS1-saline; FIG. 10; N=4 per group
Text: Materials and methods in Example 2 are the same as Example 1 except when stated. Reagents used in Example 2 only include antibodies to p-PI3Kp85, PI3Kp85, p-Akt (ser473), Akt, p-GSK3β ([…]), and GSK3β from Abcam, Inc. Cambridge, UK. The antibody to p-tau (AT8) from Thermo Scientific USA. Mouse Anti-β-actin, Anti-Rabbit IgG, Anti-mouse IgG, CY3-Anti-mouse IgG, RIPA Lysate, BCA Protein Assay Kit, DAPI staining solution and Anti-fluorescence decay agent from Boster (Wuhan, China). After in vivo hippocampal L-LTP recording, the mice were anesthetized with chloral hydrate (0.007 ml/g) by intraperitoneal injection and then the brain tissue was fixed with paraformaldehyde for 24 hours, after that the tissue was transferred to 30% sucrose solution for dehydration. The brain tissue was harvested, frozen in -80° C., and then sliced at a thickness of 30 μm, put the frozen section in PBS, blocked with normal goat serum (Solarbio, Beijing, China), followed by adding the primary antibody, second antibody and DAPI. Phosphorylated tau protein was observed by confocal laser scanning microscopy.

YXEGTFTSDYSIYLDKQAAXEFVNWLLAGGPSSGAPPPSKRRQRRKKRGY-NH2 (Y[Aib]EGTFTSDYSIYLDKQAA[Aib]EFVNWLLAGGPSSGAPPPSKRRQRRKKRGY-NH2) [DA5, No. 12; X=aminoisobutyric acid]
synapse loss / synaptic densities in the cortex [1]: protected from synapse loss | neurofibrillary tangles (immunofluorescence staining of p-tau protein) [2]: reduces neurofibrillary tangles
